Where two headings read alike, the source gives them in different places. Some results are limits rather than exact numbers.

What all share (assay type): cell-based
Test [1] deals with Trypanosoma brucei rhodesiense strain STIB 900 (bloodstream trypomastigotes). The experiment in a line: microbe, parasite or virus in culture. Conditions: for IC50: read-out: IC50 TB.
Test [2] concerns Trypanosoma cruzi strain Tulahuen C2C4 (intracellular amastigotes in L6 cells). The experiment in a line: in vitro growth inhibition of T. cruzi. Conditions: for SI TC: ratio of cytotoxic (L6) over antiparasitic IC50.
For test [3], the system named is Leishmania donovani strain MHOM/ET/67/L82 (axenic amastigotes). The experiment in a line: in vitro growth inhibition of L. donovani. Conditions: for IC50: read-out: IC50 LD.
In test [4] the test system is L6 rat skeletal myoblasts. The experiment in a line: cytotoxicity against mammalian cells. The following applies: read-out: IC50 L6.
The mark [5] stands for this setting: Trypanosoma brucei, pure compound.
Setting [6] is: ratio of cytotoxic (L6) over antiparasitic IC50.
Where [7] appears, read: Trypanosoma cruzi, TULAHUEN, L6, pure compound, read-out: IC50 TC.
The mark [8] stands for this setting: Leishmania donovani, pure compound.
The mark [9] stands for this setting: Rattus norvegicus, Myoblast, cytotoxicity, pure compound.
[10] abbreviates: pure compound, read-out: IC50 TC.

As to `O=C1C=CC(=O)c2ccccc21` [1,4-Naphthoquinone], the IC50 (in general, the concentration at which inhibition is half-maximal) in test [1] (setting [5]) was determined as 0.58 µM; in test [2] (setting [7]), 9.24 µM; in test [3] (setting [8]) it was 2.38 µM; in test [4] (setting [9]) it was 6.39 µM. In addition, the “SI TB” value in test [1] (setting [6]) amounted to 11.1. Besides, the “SI TC” value in test [2] turned out to be 0.7. Further, in test [3] (setting [6]), the “SI LD” value was 2.7.
Turning to `O=C1C(O)=C(C2=C(O)C(=O)c3ccccc3C2=O)C(=O)c2ccccc21` [2,2′-bis-(3-Hydroxy-1,4-naphthoquinone)], the IC50 stood at 68.8 µM in test [1] (pure compound); 237 µM in test [2] (setting [10]); 7.34 µM in test [3] (pure compound); 61.6 µM in test [4] (cytotoxicity, pure compound). Further, in test [1] (setting [6]), the “SI TB” value turned out to be 0.9. In addition, in test [2], the “SI TC” value came out at 0.3. Also, the “SI LD” value in test [3] (setting [6]) amounted to 8.4.
For the compound `OC[C@H]1O[C@@H](Oc2ccc(O)cc2)[C@H](O)[C@@H](O)[C@@H]1O` [Arbutin (1,4-benzoquinone glucoside), Arbutin], the IC50 in test [1] (setting [5]) is 236 µM; in test [2] (setting [7]), 244 µM; in test [3] (setting [8]), greater than 367 µM; in test [4] (setting [9]) it was greater than 367 µM. In test [1] (setting [6]), the “SI TB” value is on record as greater than 1.5. The “SI TC” value in test [2] is greater than 1.5.
On to `O=C(Cn1ccnc1[N+](=O)[O-])NCc1ccccc1` [Benznidazole], for which, in test [2] (setting [7]), the 50% inhibitory concentration (IC50) came out at 2.33 µM.
As for `OC[C@H]1O[C@@H](Oc2ccc(O)c3cccc(O)c23)[C@H](O)[C@@H](O)[C@@H]1O` [Compound 1, 4-O-β-D-Glucopyranosyl-1,4,5-trihydroxynaphthalene], in test [1], the “SI TB” value is given as 20.0. Besides, the IC50 was determined as 6.1 µM in test [1] (setting [5]); 6.12 µM in test [1] (Trypanosoma brucei); 169 µM in test [2] (setting [7]); 16.7 µM in test [3] (setting [8]); 16.6 µM in test [3] (pure compound, listed as Hydrojuglone glucoside (1)); 122 µM in test [4] (setting [9]). Also, the IC50 in test [4] (cytotoxicity, pure compound, listed as Hydrojuglone glucoside (1)) turned out to be 122 µM. Besides, the “SI TC” value in test [2] is given as 0.7. In addition, the “SI LD” value amounted to 7.3 in test [3] (setting [6]) and 7.4 in test [3] (ratio of cytotoxic (L6) over antiparasitic IC50, listed as Hydrojuglone glucoside (1)).
As to `O=C1C=CC(=O)c2c(O)cccc21` [Juglone], the “SI TB” value in test [1] came out at 13.0. Besides, the concentration for half-maximal inhibition (IC50) in test [1] (Trypanosoma brucei) was 1.62 µM; in test [2] (setting [7]), greater than 100 µM; in test [3] (Leishmania donovani), 2.02 µM; in test [4] (setting [9]), 21 µM. The “SI LD” value in test [3] amounted to 10.4.
With `CC(C)=CCC1=C(O)C(=O)c2ccccc2C1=O` [Lapachol], the IC50 in test [1] (setting [5]) was found to be 16.4 µM; in test [2] (setting [7]), 17.6 µM; in test [3] (setting [8]), 3.33 µM; in test [4] (setting [9]), 26.6 µM. For the same compound, the “SI TB” value in test [1] (setting [6]) amounted to 1.6. The “SI TC” value in test [2] turned out to be 1.5. Also, the “SI LD” value in test [3] (setting [6]) was 8.0.
Turning to `O=C1C=C(O)C(=O)c2ccccc21` [Lawson], the half-inhibitory concentration (IC50) was determined as 101 µM in test [1] (pure compound); 37.4 µM in test [2] (setting [10]); 1.99 µM in test [3] (pure compound); 20.6 µM in test [4] (cytotoxicity, pure compound). In test [1] (setting [6]), the “SI TB” value was found to be 0.2. The “SI TC” value in test [2] was 0.6. Besides, the “SI LD” value in test [3] (setting [6]) was found to be 10.3.
With `Nc1nc(N)nc(Nc2ccc([As]3SCC(CO)S3)cc2)n1` (stereo not drawn) [Melarsoprol], the IC50 in test [1] (setting [5]) stood at 0.005 µM.
With `CCCCCCCCCCCCCCCCOP(=O)([O-])OCC[N+](C)(C)C` [Miltefosine], in test [3] (setting [8]), the half-maximal inhibitory concentration (IC50) was determined as 0.18 µM.
Take `CC1=CC(=O)c2c(O)cccc2C1=O` [Plumbagin]: the IC50 in test [1] (setting [5]) was determined as 0.49 µM; in test [2] (setting [7]), 3.59 µM; in test [3] (setting [8]), 0.88 µM; in test [4] (setting [9]) it was 2.87 µM. Further, in test [1] (setting [6]), the “SI TB” value was determined as 5.9. Moreover, the “SI TC” value in test [2] came out at 0.8. Also, the “SI LD” value in test [3] (setting [6]) is reported as 3.3.
Consider `COc1cc([C@@H]2c3cc4c(cc3[C@H](O)[C@H]3COC(=O)[C@H]23)OCO4)cc(OC)c1OC` [Podophyllotoxin], for which the IC50 in test [4] (setting [9]) was found to be 0.014 µM.
As for `CC(C)=CC[C@@H](O)C1=CC(=O)c2c(O)ccc(O)c2C1=O` [Shikonin], the IC50 was 0.03 µM in test [1] (setting [5]); 0.27 µM in test [2] (Trypanosoma cruzi, TULAHUEN, L6, read-out: IC50 TC); 0.12 µM in test [3] (Leishmania donovani); 0.06 µM in test [4] (Rattus norvegicus, Myoblast). The “SI TB” value in test [1] (setting [6]) was 2.1. Also, the “SI TC” value in test [2] is on record as 0.2. Further, the “SI LD” value in test [3] (setting [6]) was 0.5.

The record behind these values is PMC6272576, “PLS-Prediction and Confirmation of Hydrojuglone Glucoside as the Antitrypanosomal Constituent of Juglans Spp” (Molecules, 2015).
